One test relates to male ferrets. Put plainly: Antiemetic action against cisplatin-induced vomiting. To be noted: test compound 3 mg/kg intravenously; cisplatin 10 mg/kg intraperitoneal; observed over six hours; inhibition vs control group, number of episodes. The class given is in vivo. The protocol: A test was conducted using male ferrets (around 1.2 kg body weight) as follows. Vomiting was induced by intraperitoneal administration of 10 mg/kg of cisplatin to the ferrets in a volume of 3 ml/kg. […] Each test compound was administered intravenously through radial skin at a dose of 3 mg/kg, and immediately after the administration, cisplatin was administered intraperitoneally. Then vomiting symptoms due to cisplatin was observed over six hours. […] The results are shown in Table 2 in terms of rates of inhibition to a control group using the number of times symptoms of vomiting occurred as an index.

The target in test [1] is T1, NK1 TACHYKININ RECEPTOR, HUMAN(CHO) (Homo sapiens, UniProt P25103). Put plainly: biochemical.
T1 sequence (P25103 whole entry): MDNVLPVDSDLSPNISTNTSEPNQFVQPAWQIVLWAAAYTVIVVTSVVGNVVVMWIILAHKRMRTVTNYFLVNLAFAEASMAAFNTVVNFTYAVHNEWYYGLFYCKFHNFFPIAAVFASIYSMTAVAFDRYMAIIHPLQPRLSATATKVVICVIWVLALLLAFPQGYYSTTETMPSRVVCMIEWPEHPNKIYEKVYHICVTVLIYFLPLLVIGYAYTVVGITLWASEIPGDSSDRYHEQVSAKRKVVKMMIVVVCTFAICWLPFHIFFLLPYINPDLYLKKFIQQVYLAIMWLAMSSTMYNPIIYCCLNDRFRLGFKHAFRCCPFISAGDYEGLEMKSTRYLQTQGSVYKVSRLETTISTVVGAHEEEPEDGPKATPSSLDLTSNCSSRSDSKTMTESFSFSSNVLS
Procedure: (§1) As a sample, NK1 TACHYKININ RECEPTOR, HUMAN(CHO) diluted with incubation buffer (20 mM HEPES/NaOH buffer containing 1 mM MgCl2, 0.1% BSA: pH 7.4) was used (18.75 µg protein/ml). […] And 20 µl of CP-99,994 (final concentration of 1.5 µM) and 20 µl of distilled water were added to determine the amount of nonspecific binding and the amount of total binding, respectively. […] After one hour of incubation, the incubated mixture was filtered with suction and washed with a wash buffer (50 mM Tris/HCl buffer: pH 7.4) four times. The membrane fitted to each well of the MultiScreen was completely dried and punched inside each vial, and 5 ml of cocktail was added to give a sample to be measured.
Test [2] concerns the target T1, NK1 TACHYKININ RECEPTOR, HUMAN(CHO).
Procedure: as §1

The text below walks through data of EP1219619B1, “3-AMINO-2-[…] DERIVATIVES AS SUBSTANCE P ANTAGONISTS” (HISAMITSU PHARMACEUTICAL CO. INC., priority 1999, dated 2001).

Counter-ions that a name gives are not always drawn. Like-named read-outs stand apart in the source and are kept apart here.

In general, Ki refers to the equilibrium dissociation constant of an inhibitor or competing ligand from its target.

As for `Cl.FC(F)(F)c1ccc(-c2cc3c(c(CN[C@H]4CCCN[C@H]4c4ccccc4)c2)OCC3)cc1` [Example 12, (2S,3S)-3-[(5-(4-trifluoromethylphenyl)-2,3-dihydrobenzofuran-7-yl)methyl]amino-2-phenylpiperidine hydrochloride], in the test with male ferrets, the “Rate of Inhibition (%) Retching” value was determined as 88.4% and the “Rate of Inhibition (%) Vomiting” value was 91.1%. In addition, the Ki in test [1] was determined as 1.01 nM.

For `Cl.c1ccc([C@@H]2NCCC[C@@H]2NCc2c3c(cc4c2OCC4)OCC3)cc1` [Example 16, (2S,3S)-3-[(2,3,6,7-tetrahydrobenzo[1,2-b:4,5-b']difuran-4-yl)methyl]amino-2-phenylpiperidine hydrochloride], in the test on male ferrets, the “Rate of Inhibition (%) Retching” value stood at 58.7% and the “Rate of Inhibition (%) Vomiting” value was determined as 62.6%. The Ki in test [1] is 1.53 nM.

In the case of “(2S,3S)-3-[(5-phenyl-2,3-dihydrobenzofuran-7-yl)methyl]amino-2-phenylpiperidine hydrochloride [Example 9]”, in the test with male ferrets, the “Rate of Inhibition (%) Retching” value is 68.4% and the “Rate of Inhibition (%) Vomiting” value came out at 59.3%. Moreover, in test [2], the affinity, expressed as Ki, was 0.41 nM.

On to `Cl.FC(F)(F)c1nc(-c2cc3c(c(CN[C@H]4CCCN[C@H]4c4ccccc4)c2)OCC3)no1` [Example 15, (2S, 3S)-3-[(5-(5-trifluoromethyl-1,2,4-oxadiazole-3-yl)-2,3-dihydrobenzofuran-7-yl)methyl]amino-2-phenylpiperidine hydrochloride], for which, in the test on male ferrets, the “Rate of Inhibition (%) Retching” value was 63.2% and the “Rate of Inhibition (%) Vomiting” value came to 66.8%.

Molecule `c1ccc([C@@H]2NCCC[C@@H]2NCc2cc(-c3ccsc3)cc3c2OCC3)cc1` [Example 7, (2S,3S)-3-[(5-(thiophene-3-yl)-2,3-dihydrobenzofuran-7-yl)methyl]amino-2-phenylpiperidine hydrochloride] had a Ki in test [1] of 0.35 nM.

The molecule `c1ccc([C@@H]2NCCC[C@@H]2NCc2cc(-c3cccs3)cc3c2OCC3)cc1` [Example 6, (2S,3S)-3-[(5-(thiophene-2-yl)-2,3-dihydrobenzofuran-7-yl)methyl]amino-2-phenylpiperidine hydrochloride] gave a Ki in test [1] of 0.35 nM.

As to `Cl.c1ccc([C@@H]2NCCC[C@@H]2NCc2cc(-n3cnnn3)cc3c2OCC3)cc1` [Example 3, (2S,3S)-3-[(5-(tetrazole-1-yl)-2,3-dihydrobenzofuran-7-yl)methyl]amino-2-phenylpiperidine hydrochloride], in the test with male ferrets, the “Rate of Inhibition (%) Retching” value worked out at 59.1% and the “Rate of Inhibition (%) Vomiting” value was 61.0%. This molecule also came in with an inhibition constant Ki in test [1] of 0.18 nM.
